ChEMBL document CHEMBL2177034, “Inhibition of hypoxia inducible factor-2 transcription: isolation of active modulators from marine sponges” (J Nat Prod, 2012)
Each block holds one molecule with its values, some of them ahead of it. Calls of active or inactive are those of the source. The calls are words filed in the database; no cut-off is given here.

Experiments:
[1] = target: T1, Endothelial PAS domain-containing protein 1 (Homo sapiens, UniProt Q99814); assay: Inhibition of HIF2alpha in human 786-0 cells expressing truncated HIF1alpha assessed as reduction in luciferase activity after 24 hrs by reporter gene assay; type: cell-based
[2] = target: Hypoxia-inducible factor 1-alpha (Homo sapiens) (UniProt Q16665); assay: Inhibition of HIF1alpha in human SK-RC-28 cells assessed as reduction in VEGFA expression at 20 uM after 48 hrs by RT-PCR analysis; type: cell-based
[3] = target: T1, Endothelial PAS domain-containing protein 1; assay: Inhibition of HIF2alpha in human RCC4 cells coexpressing HIF1alpha assessed as reduction in TGFalpha mRNA expression at 20 uM after 48 hrs by RT-PCR analysis; type: cell-based
[4] = target: T1, Endothelial PAS domain-containing protein 1; assay: Inhibition of HIF2alpha in human 786-0 cells assessed as reduction in GLUT1 mRNA expression at 20 uM after 48 hrs by RT-PCR analysis; type: cell-based
[5] = target: Hypoxia-inducible factor 1-alpha (Homo sapiens) (UniProt Q16665); assay: Induction of HIF1alpha in human RCC4 cells assessed as increase in […] 9 expression at 20 uM after 48 hrs by RT-PCR analysis relative to control; type: cell-based
[6] = target: T1, Endothelial PAS domain-containing protein 1; assay: Inhibition of HIF2alpha in human 786-0 cells assessed as reduction in VEGFA mRNA expression at 20 uM after 48 hrs by RT-PCR analysis; type: cell-based
[7] = Downregulation of HIF2alpha mRNA expression in human RCC4 cells at 20 uM after 48 hrs by RT-PCR analysis; type: functional, cell-based
[8] = target: T1, Endothelial PAS domain-containing protein 1; assay: Inhibition of HIF2alpha in human RCC4 cells coexpressing HIF1alpha assessed as reduction in CCND1 mRNA expression at 20 uM after 48 hrs by RT-PCR analysis; type: cell-based
786-0 [9] = assay: Inhibition of total protein expression in serum deprived human 786-0 cells at 20 uM after 48 hrs relative to control; type: cell-based; details: 786-0, 48 h, 20 µM
786-0 [10] = assay: Downregulation of HIF1alpha mRNA expression in human 786-0 cells at 20 uM after 48 hrs by RT-PCR analysis; type: functional, cell-based
[11] = Cytotoxicity against human RCC4 cells expressing HIF2alpha and HIF1alpha after 2 days by XTT assay; type: functional, cell-based; details: RCC4, 48 h
[12] = target: T1, Endothelial PAS domain-containing protein 1; assay: Inhibition of HIF2alpha in human RCC4 cells coexpressing HIF1alpha assessed as reduction in GLUT1 mRNA expression at 20 uM after 48 hrs by RT-PCR analysis; type: cell-based
[13] = target: T1, Endothelial PAS domain-containing protein 1; assay: Inhibition of HIF2alpha in human 786-0 cells assessed as reduction in TGFalpha mRNA expression at 20 uM after 48 hrs by RT-PCR analysis; type: cell-based
[14] = Cytotoxicity against human SK-RC-28 cells expressing HIF1alpha after 2 days by XTT assay; type: functional, cell-based; details: 48 h
[15] = target: Hypoxia-inducible factor 1-alpha (Homo sapiens) (UniProt Q16665); assay: Inhibition of HIF1alpha in human SK-RC-28 cells assessed as reduction in carbonic anhydrase expression at 20 uM after 48 hrs by RT-PCR analysis; type: cell-based
[16] = Downregulation of HIF2alpha mRNA expression in human SK-RC-28 cells at 20 uM after 48 hrs by RT-PCR analysis; type: functional, cell-based
[17] = Downregulation of HIF1alpha mRNA expression in human RCC4 cells at 20 uM after 48 hrs by RT-PCR analysis; type: functional, cell-based
[18] = Downregulation of GLUT1 mRNA expression in human SK-RC-28 cells at 20 uM after 48 hrs by RT-PCR analysis; type: functional, cell-based
[19] = Downregulation of CCND1 mRNA expression in human SK-RC-28 cells at 20 uM after 48 hrs by RT-PCR analysis; type: functional, cell-based
[20] = Downregulation of TGFalpha mRNA expression in human SK-RC-28 cells at 20 uM after 48 hrs by RT-PCR analysis; type: functional, cell-based
[21] = Downregulation of HIF1alpha mRNA expression in human SK-RC-28 cells at 20 uM after 48 hrs by RT-PCR analysis; type: functional, cell-based
[22] = target: T2, Hypoxia inducible factors; HIF-1-alpha, HIF-2-alpha (Homo sapiens) (UniProt Q16665+Q99814); assay: Inhibition of HIF1alpha/2alpha in human RCC4 cells assessed as reduction in VEGFA mRNA expression at 20 uM after 48 hrs by RT-PCR analysis; type: cell-based
786-0 [23] = assay: Downregulation of HIF2alpha mRNA expression in human 786-0 cells at 20 uM after 48 hrs by RT-PCR analysis; type: functional, cell-based
[24] = target: T1, Endothelial PAS domain-containing protein 1; assay: Inhibition of HIF2alpha in human 786-0 cells assessed as reduction in CCND1 mRNA expression at 20 uM after 48 hrs by RT-PCR analysis; type: cell-based
786-0 [25] = assay: Inhibition of HIF-mediated VEGFA protein expression in serum deprived human 786-0 cells at 20 uM after 48 hrs relative to control; type: cell-based
786-0 [26] = assay: Cytotoxicity against human 786-0 cells expressing HIF2alpha after 2 days by XTT assay; type: functional, cell-based; details: 786-0, 48 h
[27] = target: T1, Endothelial PAS domain-containing protein 1; assay: Inhibition of HIF2alpha in human 786-0 cells assessed as reduction in CCND1 mRNA expression at 1 uM after 48 hrs by RT-PCR analysis; type: cell-based
[28] = target: Hypoxia-inducible factor 1-alpha (Homo sapiens) (UniProt Q16665); assay: Inhibition of HIF1alpha in human SK-RC-28 cells assessed as reduction in VEGFA at 1 uM after 48 hrs by RT-PCR analysis; type: cell-based
[29] = target: T1, Endothelial PAS domain-containing protein 1; assay: Inhibition of HIF2alpha in human RCC4 cells coexpressing HIF1alpha assessed as reduction in TGFalpha mRNA expression at 1 uM after 48 hrs by RT-PCR analysis; type: cell-based
[30] = Downregulation of HIF1alpha mRNA expression in human RCC4 cells at 1 uM after 48 hrs by RT-PCR analysis; type: functional, cell-based
786-0 [31] = assay: Downregulation of HIF1alpha mRNA expression in human 786-0 cells at 1 uM after 48 hrs by RT-PCR analysis; type: functional, cell-based
[32] = target: T1, Endothelial PAS domain-containing protein 1; assay: Inhibition of HIF2alpha in human RCC4 cells coexpressing HIF1alpha assessed as reduction in GLUT1 mRNA expression at 1 uM after 48 hrs by RT-PCR analysis; type: cell-based
[33] = Downregulation of CCND1 mRNA expression in human SK-RC-28 cells at 1 uM after 48 hrs by RT-PCR analysis; type: functional, cell-based
786-0 [34] = assay: Inhibition of HIF-mediated VEGFA protein expression in serum deprived human 786-0 cells at 1 uM after 48 hrs relative to control; type: cell-based
[35] = Downregulation of HIF2alpha mRNA expression in human SK-RC-28 cells at 1 uM after 48 hrs by RT-PCR analysis; type: functional, cell-based
[36] = Downregulation of TGFalpha mRNA expression in human SK-RC-28 cells at 1 uM after 48 hrs by RT-PCR analysis; type: functional, cell-based
[37] = target: T1, Endothelial PAS domain-containing protein 1; assay: Inhibition of HIF2alpha in human 786-0 cells assessed as reduction in GLUT1 mRNA expression at 1 uM after 48 hrs by RT-PCR analysis; type: cell-based
[38] = Downregulation of GLUT1 mRNA expression in human SK-RC-28 cells at 1 uM after 48 hrs by RT-PCR analysis; type: functional, cell-based
786-0 [39] = assay: Downregulation of HIF2alpha mRNA expression in human 786-0 cells at 1 uM after 48 hrs by RT-PCR analysis; type: functional, cell-based
[40] = target: T1, Endothelial PAS domain-containing protein 1; assay: Inhibition of HIF2alpha in human RCC4 cells coexpressing HIF1alpha assessed as reduction in CCND1 mRNA expression at 1 uM after 48 hrs by RT-PCR analysis; type: cell-based
[41] = target: T2, Hypoxia inducible factors; HIF-1-alpha, HIF-2-alpha (Homo sapiens); assay: Inhibition of HIF1alpha/2alpha in human RCC4 cells assessed as reduction in VEGFA mRNA expression at 1 uM after 48 hrs by RT-PCR analysis; type: cell-based
[42] = target: T1, Endothelial PAS domain-containing protein 1; assay: Inhibition of HIF2alpha in human 786-0 cells assessed as reduction in TGFalpha mRNA expression at 1 uM after 48 hrs by RT-PCR analysis; type: cell-based
[43] = Downregulation of HIF2alpha mRNA expression in human RCC4 cells at 1 uM after 48 hrs by RT-PCR analysis; type: functional, cell-based
[44] = target: Hypoxia-inducible factor 1-alpha (Homo sapiens) (UniProt Q16665); assay: Inhibition of HIF1alpha in human RCC4 cells coexpressing HIF2alpha assessed as decrease in carbonic anhydrase 9 mRNA expression at 1 uM after 48 hrs by RT-PCR analysis; type: cell-based
[45] = target: Hypoxia-inducible factor 1-alpha (Homo sapiens) (UniProt Q16665); assay: Inhibition of HIF1alpha in human SK-RC-28 cells assessed as reduction in carbonic anhydrase 9 expression at 1 uM after 48 hrs by RT-PCR analysis; type: cell-based
[46] = target: T1, Endothelial PAS domain-containing protein 1; assay: Inhibition of HIF2alpha in human 786-0 cells assessed as reduction in VEGFA at 1 uM after 48 hrs by RT-PCR analysis; type: cell-based
786-0 [47] = assay: Down regulation of carbonic anhydrase 9 expression in human 786-0 cells at 1 uM after 48 hrs by RT-PCR analysis; type: functional, cell-based
[48] = Downregulation of HIF1alpha mRNA expression in human SK-RC-28 cells at 1 uM after 48 hrs by RT-PCR analysis; type: functional, cell-based

T1 sequence (Q99814 whole entry, the tested form may be a part): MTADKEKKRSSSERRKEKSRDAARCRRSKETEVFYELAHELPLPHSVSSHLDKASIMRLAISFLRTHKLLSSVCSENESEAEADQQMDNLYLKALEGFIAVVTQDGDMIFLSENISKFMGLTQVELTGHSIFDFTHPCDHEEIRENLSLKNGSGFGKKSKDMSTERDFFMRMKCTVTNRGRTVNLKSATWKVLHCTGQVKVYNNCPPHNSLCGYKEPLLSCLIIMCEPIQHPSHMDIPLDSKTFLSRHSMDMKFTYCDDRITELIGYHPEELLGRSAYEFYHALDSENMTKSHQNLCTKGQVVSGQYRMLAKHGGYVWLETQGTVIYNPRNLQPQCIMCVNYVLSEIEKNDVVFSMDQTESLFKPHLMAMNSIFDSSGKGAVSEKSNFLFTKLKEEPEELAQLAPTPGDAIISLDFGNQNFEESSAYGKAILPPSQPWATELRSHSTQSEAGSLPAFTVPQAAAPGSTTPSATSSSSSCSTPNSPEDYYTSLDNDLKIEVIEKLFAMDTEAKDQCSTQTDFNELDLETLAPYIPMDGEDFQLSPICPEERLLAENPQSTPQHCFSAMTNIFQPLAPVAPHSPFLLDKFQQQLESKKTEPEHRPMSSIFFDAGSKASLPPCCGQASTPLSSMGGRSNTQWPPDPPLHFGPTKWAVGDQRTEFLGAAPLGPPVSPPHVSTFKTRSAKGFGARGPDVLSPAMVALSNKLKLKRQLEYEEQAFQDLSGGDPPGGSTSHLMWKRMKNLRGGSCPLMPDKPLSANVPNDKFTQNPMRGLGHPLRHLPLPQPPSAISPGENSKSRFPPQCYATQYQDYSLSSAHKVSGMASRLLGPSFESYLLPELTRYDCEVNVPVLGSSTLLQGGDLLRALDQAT
Sequence of Hypoxia-inducible factor 1-alpha (Homo sapiens) (Q16665 whole entry, looked up, the tested form may be a part): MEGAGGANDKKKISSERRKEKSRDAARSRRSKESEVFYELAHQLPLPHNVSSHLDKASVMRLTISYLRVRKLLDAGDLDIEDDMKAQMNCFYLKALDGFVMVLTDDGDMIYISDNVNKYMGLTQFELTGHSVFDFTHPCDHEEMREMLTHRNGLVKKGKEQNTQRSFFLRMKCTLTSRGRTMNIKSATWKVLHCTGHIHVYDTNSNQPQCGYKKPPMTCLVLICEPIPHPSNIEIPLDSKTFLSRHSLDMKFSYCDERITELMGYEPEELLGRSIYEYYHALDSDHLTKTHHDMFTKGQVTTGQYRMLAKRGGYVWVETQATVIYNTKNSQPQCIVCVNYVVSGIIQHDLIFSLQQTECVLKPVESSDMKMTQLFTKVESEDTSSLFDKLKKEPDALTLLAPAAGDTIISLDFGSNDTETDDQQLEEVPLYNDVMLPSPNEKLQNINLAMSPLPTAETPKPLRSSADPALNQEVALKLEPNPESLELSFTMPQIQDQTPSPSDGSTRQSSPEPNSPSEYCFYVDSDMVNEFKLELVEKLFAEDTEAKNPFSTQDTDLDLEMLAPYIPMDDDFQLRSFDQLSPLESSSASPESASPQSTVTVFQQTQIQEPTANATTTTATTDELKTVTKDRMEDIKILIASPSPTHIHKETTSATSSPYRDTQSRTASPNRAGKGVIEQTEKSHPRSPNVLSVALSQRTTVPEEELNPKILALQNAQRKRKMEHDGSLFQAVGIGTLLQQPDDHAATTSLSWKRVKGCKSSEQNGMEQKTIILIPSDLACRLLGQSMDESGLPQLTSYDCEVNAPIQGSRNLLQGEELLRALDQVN

SMILES: COC1=C(C)C(=O)c2cc(=O)n(C)c(C)c2C1=O [MIMOSAMYCIN]
EC50 [1]: > 100 µM

SMILES: Nc1nccc(-c2c3c(O)ccnc3n3c(N)nccc23)n1 [VARIOLIN B]
inhibition [27]: inactive | inhibition [28]: inactive | inhibition [29]: inactive | Activity [30]: inactive | Activity (786-0 [31]): inactive | inhibition [32]: inactive | Activity [33]: inactive | inhibition (786-0 [34]): 50% | Activity [35]: inactive | Activity [36]: inactive | inhibition [37]: inactive | IC50 [11]: 8.8 µM | IC50 [14]: > 100 µM | Activity [38]: inactive | Activity (786-0 [39]): inactive | inhibition [40]: inactive | inhibition [41]: inactive | inhibition [42]: inactive | Activity [43]: inactive | inhibition [44]: inactive | inhibition [45]: inactive | EC50 [1]: 0.7 µM | IC50 (786-0 [26]): > 100 µM | inhibition [46]: inactive | Activity (786-0 [47]): inactive | Activity [48]: inactive

More lines, main results first:

EC50 [1]: 1.2 µM
SMILES: CC(=O)O[C@@H]1OC=C2[C@@H](OC(C)=O)C[C@H]3[C@]4(C)CC[C@H]5C(C)(C)CCC[C@]5(C)[C@H]4C[C@@H](O)[C@]3(C)[C@H]21 [HETERONEMIN]

inhibition [2]: inactive | inhibition [3]: Active | inhibition [4]: Active | fold change (FC) [5]: 4 | inhibition [6]: Active | inhibition [8]: Active | inhibition [12]: Active | inhibition [13]: Active | inhibition [15]: inactive | inhibition [22]: Active | inhibition [24]: Active | EC50 [1]: 3.3 µM
SMILES: CC1(C)CCC[C@]2(C)[C@H]3C=C4C=C(O)C(=O)C=C4O[C@@]3(C)CC[C@@H]12 [PUUPEHENONE]
Activity [7]: Active | Activity (786-0 [9]): Toxic | Activity (786-0 [10]): Active | IC50 [11]: 18 µM | IC50 [14]: 15.5 µM | Activity [16]: inactive | Activity [17]: Active | Activity [18]: inactive | Activity [19]: inactive | Activity [20]: inactive | Activity [21]: inactive | Activity (786-0 [23]): Active | inhibition (786-0 [25]): Active | IC50 (786-0 [26]): 17.7 µM

EC50 [1]: > 100 µM
SMILES: C[C@@]12CCCc3coc(c31)C(=O)c1cc3c(cc12)C(=O)C=CC3=O [XESTOQUINONE]
